From paper PMC7555970, “Design, Synthesis and Biological Evaluation of Biphenylglyoxamide-Based Small Molecular Antimicrobial Peptide Mimics as Antibacterial Agents” (International Journal of Molecular Sciences, 2020)
pIC50: −log10 of the molar value.

Legend:
S. aureus (SA38) [1] = experiment: Minimum inhibitory concentration (MIC) assay against S. aureus; format: cell-based, Staphylococcus aureus; details: Staphylococcus aureus
Experimental: (§1) The antimicrobial activity of the compounds was evaluated by MIC assay using the procedure described by Clinical and Laboratory Standards Institute (CLSI). A single colony of bacteria was cultured overnight in trypticase soy broth (TSB; Oxoid, Basingstoke, UK) at 37 °C with shaking. The resulting bacterial culture was collected by centrifugation and resuspended in TSB twice. The optical density (OD) of the resulting culture was adjusted to OD660 = 0.1 in TSB (which is equivalent to 10^8 colony forming unit (CFU)/mL bacteria). It was further diluted to 10^6 CFU/mL in TSB. 100 µL of the bacterial solution was then added to wells of a 96-well plate (Costar; Sigma-Aldrich, St Louis, MO, USA) containing 100 µL serially diluted peptide mimic, with final concentration ranging from 1 to 250 µM. Wells with bacteria but no compound were used as negative control while wells with only media were set as blank. The plates were then wrapped with parafilm to prevent evaporation and incubated with shaking at 120 rpm at 37 °C for 18–24 h, and the data were recorded by measuring the OD value at 660 nm using a FLUOstar Omega (BMG Labtech, Mornington, Victoria, Australia) microplate reader. […] Each experiment was performed in triplicate and was repeated in three independent experiments.

P. aeruginosa (PA01) [2] = experiment: Minimum inhibitory concentration (MIC) assay against P. aeruginosa; format: cell-based; details: Pseudomonas aeruginosa
Experimental: as §1

E. coli (K12) [3] = experiment: Minimum inhibitory concentration (MIC) assay against E. coli; format: cell-based; details: Escherichia coli
Experimental: as §1

[4] = system: established S. aureus biofilms; experiment: Biofilm disruption assay (crystal violet staining), S. aureus; format: cell-based, Staphylococcus aureus; details: 24 h treatment
Experimental: (§2) Bacterial cultures (S. aureus and E. coli) were grown in Muller Hinton broth (MHB; Oxoid, Basingstoke, UK) media overnight at 37 °C with shaking at 120 rpm. Cultures were diluted (1:20) in MHB medium and 200 µL aliquots were dispensed to wells in a flat bottom 96-well plate (Costar; Sigma-Aldrich, St Louis, MO, USA). Biofilm was then grown in the 96-well plate at 37 °C overnight. After that, loosely bound cells were washed away with 1x phosphate-buffered saline (PBS) and cultures were then supplemented with different concentrations of test compounds dissolved in DMSO and incubated for a further 24 h with shaking at 120 rpm. Biofilms adhered on the plate substratum were quantified using crystal violet staining as described previously. The experiment was performed in triplicate.

[5] = system: preformed E. coli biofilm; experiment: Biofilm disruption assay (crystal violet staining), E. coli; format: cell-based, Escherichia coli; details: 4× MIC (64 μM), 24 h treatment
Experimental: as §2

[6] = system: cytoplasmic membrane of S. aureus; experiment: Cytoplasmic membrane permeability (diSC3-5 dye release) assay; format: cell-based, Staphylococcus aureus; details: 1× and 2× MIC
Experimental: Bacterial cytoplasmic membrane permeability was determined using membrane potential-sensitive dye diSC3–5 (3,3′-dipropylthiadicarbocyanine iodide), which penetrates inside bacterial cells depending on the membrane potential gradient of the cytoplasmic membrane. The procedure of this assay follows the method previously described by Wu et al. with slight modifications. Bacteria were grown in MHB to mid-log phase by incubating with shaking at 37 °C for […]. Following incubation, bacteria were washed with 5 mM HEPES containing 20 mM glucose at pH 7.2 and resuspended in the same buffer to an OD600 0.05–0.06 (yielding a final concentration of 10^7 CFU/mL). The dye diSC3–5 was added at 4 μM to the bacterial suspension. The suspensions were incubated at room temperature for 1 h in darkness for maximum dye take-up by the bacterial cells. 100 mM KCl was then added to balance the K^+ outside and inside the bacterial cell. 100 μL of bacterial suspension was added in a 96-well microtiter plate and with equal volume of antimicrobial compounds. DMSO (10%) was set as a positive control while dye and only bacterial cells were set as negative control. Fluorescence due to release of dye was measured with a luminescence spectrophotometer at 3 min intervals at an excitation wavelength of 621 nm and an emission wavelength of 670 nm.

S. aureus = experiment: Time-kill kinetic / cell viability count assay; format: cell-based, Staphylococcus aureus; details: 1× and 2× MIC
Experimental: The number of viable cells was confirmed by serially diluting aliquots of bacteria in D/E neutralizing broth (Remel, Lenexa, KS, USA) and plating onto Tryptic Soy Agar (Oxoid, Basingstoke, UK) containing phosphatidylcholine (0.7 g/L) and Tween 80 (5 mL/L). The plates were incubated at 37 °C overnight and numbers of live bacteria were enumerated and expressed as CFU/mL. The experiment was performed in triplicate.

[7] = system: MRC-5 normal human lung fibroblasts; experiment: MTT toxicity assay; format: cell-based; details: Homo sapiens, MRC5, 72 h, 72 h drug incubation, read-out: IC50 against MRC-5 normal human lung fibroblasts
Experimental: The toxicity of the compounds was measured using an MTT (3-(4,5-dimethylthiazol-2-yl)-2,5-diphenyltetrazolium bromide) (Sigma Aldrich, St Louis, MO, USA) colorimetric assay against normal human lung fibroblasts MRC-5 cells. The cells were cultured in minimal essential medium (MEM; Sigma Aldrich, St Louis, MO, USA) containing 10% foetal bovine serum (FBS). The cells were maintained at 37 °C in 5% CO2 as an adherent monolayer and was passaged upon reaching confluence by standard cell culture techniques. MRC-5 cells were seeded at 5000 cells/well in 96-well plates to ensure full confluence (quiescence) and left overnight to adhere to the plate wells. The adherent cells were treated with 1–500 µM of compounds by dissolving in DMSO and serially diluting with media. The final concentration of DMSO was 0.5% (v/v). After 72 h drug incubation, […] stock MTT solution (5 mg/mL) was added and the cells were incubated for another 3.5–4 h. MTT solution-containing media was carefully aspirated without displacing the purple crystals from the bottom and […] acid-isopropanol was added to all wells and mixed slowly by shaking with an orbital shaker to dissolve the dark blue crystals. The metabolic activity was detected by spectrophotometric analysis by assessing the read absorbance (590/620 nm) on an EnSight plate reader (PerkinElmer, Waltham, MA, USA) and cell viability was expressed as a percentage of untreated control cells. The determination of IC50 values was performed using GraphPad Prism 6 (GraphPad, San Diego, CA, USA). Each experiment was performed in triplicate and was repeated in three independent experiments.

[8] = Tethered bilayer lipid membranes (tBLMs) assay, zwitterionic membrane; details: for changes of membrane conduction: zwitterionic membrane, higher concentrations (1–100 μM)
Experimental: (§3) Changes in membrane conduction and capacitance were measured using tethered bilayer lipid membranes (tBLMs) in association with AC electrical impedance spectroscopy techniques. Sparsely tethered tBLMs were prepared using a zwitterionic 1-palmitoyl-2-oleoyl-glycero-3-phosphocholine (POPC) (Avanti Lipids, USA) or a mixture of 30% palmitoyl-oleoyl-phosphatidylglycerol (POPG) (Avanti Lipids, USA) lipids with 70% POPC in order to create a negatively charged tBLM [66, 67]. To do this, gold-patterned polycarbonate slides were coated with tethered benzyl-disulfide (tetra-ethyleneglycol) n = 2 C20-phytanyl tethers:benzyl-disulfide-tetra-ethyleneglycol-OH spacers in the ratio of 1:10 (SDx Tethered Membranes Pty Ltd., Australia). A 3 mM solution of a mobile lipid phase POPC, or a 3 mM solution of mobile phase POPC/POPG (70:30), (Avanti Lipids, USA) in 100% ethanol was then incubated with the tethering chemistries. Lipids were left to incubate with the tethering chemistries for 2 min before being washed with 3 × […] of phosphate-buffered saline (PBS). Prior to the addition of the compounds, membrane stability was confirmed by 5 × 100 µL washes of the PBS vehicle. AC electrical impedance spectrometry (EIS) was then used to monitor any changes in membrane impedances as a result of adding the test compounds in increasing concentrations.
(§4) For EIS measures, a 50 mV peak-to-peak AC excitation from 0.1 to 2000 Hz with four steps per decade were recorded using a TethaPod™ operated with TethaQuick™ software (SDx Tethered Membranes Pty Ltd., Australia). The data were fitted to an equivalent circuit consisting of a Constant Phase Element (CPE), to represent the imperfect capacitance of the gold tethering electrode, in series with a Resistor/Capacitor network to represent the lipid bilayer membrane. Fitting of the phase and impedance data to the equivalent circuit was completed with a proprietary adaptation of a Lev Mar fitting routine. To account for variations in basal membrane conditions, data are normalised to a baseline conduction and capacitance values directly before the addition of each compound.

[9] = Tethered bilayer lipid membranes (tBLMs) assay, negatively charged membrane; details: for changes of membrane conduction: negatively charged membranes, higher concentrations (1–100 μM), compared to zwitterionic
Experimental: as §3, §4

S. aureus (SA38) [10] = details: cited from earlier work
P. aeruginosa (PA01) [11] = details: cited from earlier work
E. coli (K12) [12] = details: cited from earlier work
[13] = any tested concentration (1×, 2× and 4× MIC)
[14] = no antibacterial activity at the highest concentration tested (250 μM) ref 43
[15] = previously reported values ref 51

Compound | MIC (S. aureus (SA38) [1]) [µM] | MIC (P. aeruginosa (PA01) [2]) [µM] | MIC (E. coli (K12) [3]) [µM] | disruption of preformed S. aureus biofilms ([4]; 4× MIC (32 μM)) [%] | increase in diSC3-5 fluorescence intensity (cytoplasmic membrane disruption) [6] | reduction in bacterial numbers (S. aureus) | pIC50 [7] | disruption of preformed S. aureus biofilms [4, 13] | changes of membrane conduction [8] | changes of membrane conduction [9] | other results
CCCCCCCCS(=O)(=O)Nc1ccc(-c2ccc(F)cc2)cc1C(=O)C(=O)NCCCNC(=N)N.Cl [Compound 22b, 2-(4’-Fluoro-4-(octylsulfonamido)-[1,1’-biphenyl]-3-yl)-N-(3-guanidinopropyl)-2-oxoacetamide hydrochloride] | 8 | 63 | 16 | 39 | modest | less than 1 log | 4.12 |  |  |  | disruption of preformed E. coli biofilm [5]: insignificant amount
CCCCCCCCS(=O)(=O)Nc1ccc(-c2ccc3ccccc3c2)cc1C(=O)C(=O)NCCC[N+](C)(C)C.[I-] [Compound 15d, N,N,N-Trimethyl-3-(2-(5-(naphthalen-2-yl)-2-(octylsulfonamido)phenyl)-2-oxoacetamido)propan-1-aminium iodide] | 8 | 250 | 63 |  |  |  | 3.95 | failed to disrupt any | more pronounced | lower | shift in membrane conductance ([8]; zwitterionic POPC tBLMs, concentrations as low as 100 nM): 2.5 ×; membrane capacitance ([8]; zwitterionic tBLMs, saturating concentrations): large increase; changes in membrane conductance ([9]; 30% POPG membranes, concentrations <1 μM): notably absent; membrane capacitance ([9]; negatively charged tBLMs, saturating concentrations): large increase
CCCCCCCCS(=O)(=O)Nc1ccccc1C(=O)C(=O)NCCC[N+](C)(C)C [Compound 4a] |  |  |  |  |  |  |  |  |  |  | MIC against S. aureus (S. aureus (SA38) [10]; previously synthesised N-sulfonylphenylglyoxamide iodide salts ref 43): 250 µM; MIC against P. aeruginosa (P. aeruginosa (PA01) [11]; [14]): > 250 µM; MIC against E. coli (E. coli (K12) [12]; [14]): > 250 µM
pexiganan [pexiganan (MSI-78)] |  |  |  |  |  |  |  |  |  |  | MIC S. aureus (S. aureus (SA38) [10]; [15]): 3.2 to 6.5 µM; MIC P. aeruginosa (P. aeruginosa (PA01) [11]; [15]): 3.2 to 6.5 µM; MIC E. coli (E. coli (K12) [12]; [15]): 3.2 to 6.5 µM
CCCCCCCCS(=O)(=O)Nc1ccc(-c2ccc3ccccc3c2)cc1C(=O)C(=O)NCCCNC(=N)N.Cl [Compound 22d, N-(3-Guanidinopropyl)-2-(5-(naphthalen-2-yl)-2-(octylsulfonamido)phenyl)-2-oxoacetamide hydrochloride] | 8 | > 250 | > 250 | 50 | modest | less than 1 log | 4.31 |  |  |  | 
CCCCCCCCS(=O)(=O)Nc1ccc(-c2ccccc2)cc1C(=O)C(=O)NCCCNC(=N)N.Cl [Compound 22a, N-(3-Guanidinopropyl)-2-(4-(octylsulfonamido)-[1,1’-biphenyl]-3-yl)-2-oxoacetamide hydrochloride] | 8 | 63 | 63 |  |  |  | 4.12 | failed to disrupt any | more pronounced | lower | 
